# Assays:
# Type in all cases: biochemical
# [1] = biological target: Recombinant human FGFR1 (Homo sapiens, UniProt P11362); assay: Transcreener Kinase Assay of FGFR1; settings: read-out: FGFR1 (FP) IC50
# Method: Transcreener Kinase Assay of FGFR1
# (§1) Prepare Solution • Compounds were solved in DMSO and were diluted with assay buffer to 5 folds of final concentration keeping the DMSO concentration at 5%. Further dilution are needed to make final concentrations are at 1, 0.33, 0.11, 0.037, 0.012, 0.004, 0.0014, 0.0005 μM; (the final concentration of DMSO is 1%). • Enzyme/Substrate stock Preparation: Recombinant human FGFR1 and Poly E4Y are both diluted in assay buffer.
# (§2) Enzymatic Reaction • In a 96-well plate, Add 5 μL of compound or control. (positive control: 5 μL of 5% DMSO; negative control: 5 μL of 500 mM EDTA) into desired wells; • Add 10 μL of Enzyme/Substrate stock into each well; • Add 10 μL of ATP Diluents to initiate the enzyme reaction and votex the plate immediately on a plate shaker; • For the wells to make standard curve, add 5 μL of 5% DMSO, 10 μL of assay buffer and 10 μL of ATP standard curve stock. • Incubate the plate for 45 min at 28[…] on a plate shaker in a low speed.
# Excitation wavelength: 610 nm, Emission wavelength: 670 nm.
# (§3) • [ADP] in Compound well represents the ADP concentration in compound well. • [ADP] in Positive control well represents the ADP concentration in 5% DMSO well • Conversion of mP value to ADP concentration is calculated based on the formula which determined by standard curve. And mP value is measured by following the instruction provided by BellBrook Labs. (www.bellbrooklabs.com). 6. IC50: calculated using XL-Fit 2.0 software.
# [2] = biological target: Recombinant human FGFR2 (Homo sapiens, UniProt P21802); assay: Transcreener Kinase Assay of FGFR2; settings: read-out: FGFR2 (FP) IC50
# Recombinant human FGFR2, sequence (P21802 22-821): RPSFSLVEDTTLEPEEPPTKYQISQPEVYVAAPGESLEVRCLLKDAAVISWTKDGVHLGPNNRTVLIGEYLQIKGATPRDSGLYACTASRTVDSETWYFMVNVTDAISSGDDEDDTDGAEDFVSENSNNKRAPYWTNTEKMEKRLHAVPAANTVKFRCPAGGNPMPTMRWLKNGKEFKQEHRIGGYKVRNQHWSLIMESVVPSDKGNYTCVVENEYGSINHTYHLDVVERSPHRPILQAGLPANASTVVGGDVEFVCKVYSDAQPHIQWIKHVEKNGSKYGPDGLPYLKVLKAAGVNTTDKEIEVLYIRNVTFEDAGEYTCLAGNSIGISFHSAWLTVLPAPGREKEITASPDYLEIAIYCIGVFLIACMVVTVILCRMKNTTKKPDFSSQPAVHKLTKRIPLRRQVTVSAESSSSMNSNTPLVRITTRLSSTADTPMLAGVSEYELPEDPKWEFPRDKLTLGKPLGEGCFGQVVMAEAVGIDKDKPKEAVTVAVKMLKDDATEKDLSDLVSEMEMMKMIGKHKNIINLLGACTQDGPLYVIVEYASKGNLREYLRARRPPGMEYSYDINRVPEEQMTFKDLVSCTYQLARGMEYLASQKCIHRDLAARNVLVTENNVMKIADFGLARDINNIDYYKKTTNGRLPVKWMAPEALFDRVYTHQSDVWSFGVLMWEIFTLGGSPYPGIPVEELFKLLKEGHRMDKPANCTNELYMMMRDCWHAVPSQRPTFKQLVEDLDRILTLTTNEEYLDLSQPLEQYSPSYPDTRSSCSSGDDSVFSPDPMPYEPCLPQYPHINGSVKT
# Method: Transcreener Kinase Assay of FGFR2
# as §1, with “•” for “Prepare Solution •”, “FGFR2” for “FGFR1”, “buffer. The final concentration is 0.3 ng/μL for FGFR2 and 62.5 ng/μL for Poly E4Y. The mixture is being kept in ice before use; • Prepare ATP Diluents, 10 mM ATP is diluted in assay buffer, the final concentration is 25 μM; • Prepare ADP Diluents: diluted ADP (500 μM) in assay buffer, the final concentration is 25 μM; • Prepare ATP standard curve stock as following:” for “buffer.”
# as §2, with “•” for “Enzymatic Reaction •”
# • Detection Mix Preparation: The mixture is made by dilution with MilliQ water; as following: ADP Alexa633 tracer (1:100), ADP antibody (1:158), and stop & detect buffer (1:10); • Tracer Only control Preparation: The mixture is made by dilution with MilliQ water; as following: ADP Alexa633 tracer (1:100), and stop & detect buffer (1:10) • No Tracer control Preparation: stop & detect buffer is diluted with MilliQ water; by 10 fold. • Add 25 μL of detection mix, Tracer Only control and No Tracer control into corresponding wells, respectively; • Incubate at 28 °C for 1 h, on a plate shaker in a low speed; • Measure florescence polarization (FP) on TECAN F500. Excitation wavelength: 610 nm, Emission wavelength: 670 nm.
# as §3
# [3] = biological target: FGFR3 kinase (Homo sapiens, UniProt P22607); assay: Z-Lyte Kinase Assay of FGFR3
# FGFR3 kinase, sequence (P22607 23-806): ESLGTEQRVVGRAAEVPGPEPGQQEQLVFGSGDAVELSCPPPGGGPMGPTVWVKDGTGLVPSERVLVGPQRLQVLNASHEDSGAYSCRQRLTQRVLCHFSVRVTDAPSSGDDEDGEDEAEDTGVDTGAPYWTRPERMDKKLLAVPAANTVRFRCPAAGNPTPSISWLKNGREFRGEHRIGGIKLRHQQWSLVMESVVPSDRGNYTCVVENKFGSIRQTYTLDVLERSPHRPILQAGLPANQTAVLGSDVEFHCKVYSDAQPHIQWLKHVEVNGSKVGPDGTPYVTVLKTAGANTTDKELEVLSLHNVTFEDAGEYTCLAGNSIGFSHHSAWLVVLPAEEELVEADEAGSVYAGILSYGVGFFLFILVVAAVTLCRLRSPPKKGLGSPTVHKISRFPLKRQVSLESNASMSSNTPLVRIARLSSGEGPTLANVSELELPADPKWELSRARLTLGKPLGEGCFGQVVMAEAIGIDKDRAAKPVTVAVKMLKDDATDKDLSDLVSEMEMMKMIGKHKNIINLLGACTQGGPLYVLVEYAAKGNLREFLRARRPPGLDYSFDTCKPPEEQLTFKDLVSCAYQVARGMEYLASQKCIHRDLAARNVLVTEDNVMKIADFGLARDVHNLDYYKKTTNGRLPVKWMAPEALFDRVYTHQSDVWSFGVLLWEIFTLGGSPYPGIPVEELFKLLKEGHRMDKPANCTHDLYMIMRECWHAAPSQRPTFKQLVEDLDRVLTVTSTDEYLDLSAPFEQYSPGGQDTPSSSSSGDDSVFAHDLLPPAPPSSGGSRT
# Method: Z-Lyte Kinase Assay of FGFR3
# The final concentrations are 1, 0.33, 0.11, 0.037, 0.012, 0.004, 0.0014, 0.00046 μM, and the final concentration of DMSO is 2%. • 3) Kinase/Peptide Mixture (P/K solution): Prepare Kinase/Peptide Mixture by diluting the kinase to 0.7 μg/ml and the Z-LYTE™ Tyr 4 peptide to 4 μM in 1.33× Kinase Buffer. Mix gently by pipetting. • 4) Phospho-peptide Solution (PP solution): Add 0.4 μl of Z-LYTE™ Tyr 4 Phospho-peptide to 99.6 μl of 1.33× Kinase Buffer. • 5) ATP Solution: Prepare ATP Solution by diluting the 10 mM of ATP in 1.33× Kinase Buffer to 300 uM. • 6) Development Solution: Dilute Development Reagent B with Development Buffer as 1:128.
# Shake the plate for 30 Sec and centrifuge (1500 rpm, 1 min) • Seal the plate to protect from the light and incubate the plate for 1 hour at RT (25-30[…]) • 2) Development reaction • Add 5 μl of the Development solution to all wells • Shake the plate for 30 Sec and centrifuge (1500 rpm, 1 min) • Seal the plate to protect from the light and incubate the plate for 1 hour at RT (25-30[…]) • 3) Stop and read • Add 5 μl of the Stop reagent to all wells • Shake the plate for 30 Sec and centrifuge (1500 rpm, 1 min) • Measure the value of Coumarin (Ex400 nm, Em445 nm) and fluorescein (Ex400 nm, Em520 nm), respectively.
# Inhibition rate(IR)=1−%Photest Cpd/%PhoC2
# • determined with add-in software for Microsoft Excel, XLfit™ (version 2.0) from ID Business Solutions (Guildford, UK)
# Recombinant human FGFR1, sequence (P11362 22-822): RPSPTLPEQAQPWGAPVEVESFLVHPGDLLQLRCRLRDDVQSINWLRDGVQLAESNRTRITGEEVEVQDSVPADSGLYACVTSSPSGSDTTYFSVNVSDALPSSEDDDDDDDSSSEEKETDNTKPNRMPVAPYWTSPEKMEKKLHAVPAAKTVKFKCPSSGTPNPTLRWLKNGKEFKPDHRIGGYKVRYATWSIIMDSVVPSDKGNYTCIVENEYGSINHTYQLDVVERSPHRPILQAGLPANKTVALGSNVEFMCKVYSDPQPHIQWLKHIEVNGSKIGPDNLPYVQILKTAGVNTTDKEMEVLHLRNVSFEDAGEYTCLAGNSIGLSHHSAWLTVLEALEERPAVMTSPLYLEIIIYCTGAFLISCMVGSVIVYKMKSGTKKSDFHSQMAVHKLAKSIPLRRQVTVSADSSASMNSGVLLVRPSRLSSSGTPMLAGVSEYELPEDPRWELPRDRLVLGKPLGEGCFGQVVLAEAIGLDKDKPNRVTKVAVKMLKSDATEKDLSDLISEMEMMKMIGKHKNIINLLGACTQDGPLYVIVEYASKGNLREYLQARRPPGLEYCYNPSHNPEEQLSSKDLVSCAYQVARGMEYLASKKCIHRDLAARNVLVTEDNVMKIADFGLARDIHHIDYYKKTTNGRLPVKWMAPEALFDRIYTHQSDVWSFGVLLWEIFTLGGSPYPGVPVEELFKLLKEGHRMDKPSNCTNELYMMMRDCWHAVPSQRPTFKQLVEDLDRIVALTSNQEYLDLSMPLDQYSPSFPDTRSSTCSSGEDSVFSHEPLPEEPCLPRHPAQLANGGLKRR
Structure (SMILES),IC50 [1],IC50 [2],IC50 [3]
CCN1CC[C@@H](n2cc(Nc3ncc(CCc4cc(C(=O)NC)cc(OC)c4F)cn3)cn2)C1 [Compound 170],99 nM,87 nM,132 nM
CNC(=O)c1cc(CCc2cnc(Nc3cnn([C@H]4CCNC4)c3)nc2)c(F)c(OC)c1 [Compound 162],17 nM,10 nM,14 nM
CNC(=O)c1cc(COc2cnc(Nc3cnn(C4C[C@@H](C)N[C@@H](C)C4)c3)nc2)c(F)c(OC)c1 (some centres unmarked) [Compound 202],15 nM,6 nM,7 nM
CNC(=O)c1cc(CCc2cnc(Nc3cccc(N4C[C@@H](C)N[C@@H](C)C4)c3)nc2)cc(OC)c1 [Compound 12],98 nM,25 nM,128 nM
CNC(=O)c1cc(COc2cnc(Nc3ccc(N4C[C@@H](C)N[C@@H](C)C4)c(F)c3)nc2)c(Cl)c(OC)c1 [Compound 220],10 nM,4 nM,10 nM
"CNC(=O)c1cc(CCc2cnc(Nc3cc[n+]([O-])c(C)c3)nc2)c(F)c(OC)c1 [Compound 78, 4-((5-(2-fluoro-3-methoxy-5-(methylcarbamoyl)phenethyl)pyrimidin-2-yl)amino)-2-methylpyridine 1-oxide]",44 nM,18 nM,31 nM
CNC(=O)c1cc(CCc2cnc(Nc3ccc(CC(=O)O)cc3)nc2)c(F)c(OC)c1 [Compound 206],38 nM,13 nM,21 nM
CNC(=O)c1cc(CCc2cnc(Nc3cnn(C4CCNCC4)c3)nc2)c(F)c(OC)c1 [Compound 164],8 nM,8 nM,8 nM
CCN1CCN(c2ccc(Nc3ncc(CCc4cc(C(=O)NC)cc5occc45)cn3)cc2)CC1 [Compound 4],201 nM,233 nM,795 nM
CNC(=O)c1cc(CCc2cnc(Nc3ccn4c(C)nnc4c3)nc2)c(F)c(OC)c1 [Compound 70],27 nM,16 nM,22 nM
CCn1cc(Nc2ccc(OCc3cc(C(=O)NC)cc(OC)c3F)cn2)cn1 [Compound 187],271 nM,132 nM,227 nM
CNC(=O)c1cc(CCc2cnc(Nc3cnn([C@@H]4CCNC4)c3)nc2)c(F)c(OC)c1 [Compound 161],17 nM,9 nM,12 nM
CNC(=O)c1cc(CCc2cnc(Nc3ccn4cnnc4c3)nc2)c(F)c(OC)c1 [Compound 68],31 nM,13 nM,25 nM
CNC(=O)c1cc(CCc2cnc(Nc3c(C)nn(C)c3C)nc2)c(F)c(OC)c1 [Compound 109],379 nM,275 nM,311 nM
"CNC(=O)c1cc(C#Cc2cnc(Nc3ccc(N4C[C@@H](C)N[C@@H](C)C4)cc3)nc2)c(Cl)c(OC)c1 [Compound 222, 4-chloro-3-((2-((4-((3S,5R)-3,5-dimethylpiperazin-1-yl)phenyl)amino)pyrimidin-5-yl)ethynyl)-5-methoxy-N-methylbenzamide]",22 nM,8 nM,27 nM
CNC(=O)c1cc(CCc2cnc(Nc3cnn(CC(=O)N4CCN(C)CC4)c3)nc2)c(F)c(OC)c1 [Compound 144],13 nM,6 nM,16 nM
CCn1cnc(Nc2ncc(CCc3cc(C(=O)NC)cc(OC)c3F)cn2)c1 [Compound 28],360 nM,245 nM,347 nM
CNC(=O)c1cc(CCc2cnc(Nc3ccn4c(COC)nnc4c3)nc2)c(F)c(OC)c1 [Compound 73],34 nM,11 nM,40 nM
CCOc1cc(CCc2cnc(Nc3ccc(N4CCN(CC)CC4)cc3)nc2)cc(C(=O)NOC)c1 [Compound 51],103 nM,113 nM,175 nM
CNC(=O)c1cc(CCc2cnc(Nc3cnn(C4CNC4)c3)nc2)c(F)c(OC)c1 [Compound 160],15 nM,10 nM,16 nM
C#Cc1ccc(Nc2ncc(OCc3cc(C(=O)NC)cc(OC)c3F)cn2)cc1 [Compound 210],119 nM,27 nM,690 nM
CNC(=O)c1cc(CCc2cnc(Nc3ccc(N4C[C@@H](C)N[C@@H](C)C4)nc3)nc2)c(Cl)c(OC)c1 [Compound 214],10 nM,11 nM,17 nM
CNC(=O)c1cc(COc2cnc(Nc3ccc(CC(=O)O)cc3)nc2)c(F)c(OC)c1 [Compound 207],45 nM,16 nM,29 nM
CCN1CCN(c2ccc(Nc3ncc(CCc4cc(C(=O)NC5CC5)cc5occc45)cn3)cc2)CC1 [Compound 7],143 nM,169 nM,590 nM
"CNC(=O)c1cc(CCc2cnc(Nc3cnn(C4CCNCC4)c3)nc2)c(Cl)c(OC)c1 [Compound 158, 4-chloro-3-methoxy-N-methyl-5-(2-(2-(1-(piperidin-4-yl)-1H-pyrazol-4-ylamino)pyrimidin-5-yl)ethyl)benzamide]",8 nM,8 nM,6 nM
CCN1CCN(c2ccc(Nc3ncc(CCc4cc(C(=O)NOC)cc5c4CCO5)cn3)cc2)CC1 [Compound 6],922 nM,986 nM,
CCN1CCN(c2ccc(Nc3ncc(CCc4cc(OC)cc(C(=O)NOC(C)C)c4)cn3)cc2)CC1 [Compound 58],325 nM,123 nM,509 nM

# From patent US20160052926A1, “NOVEL PYRIMIDINE AND PYRIDINE COMPOUNDS AND USAGE THEREOF” (HUTCHISON MEDIPHARMA LIMITED, priority 2013, published 2016)
